24 compounds from patent publication US20240246954A1, “COMPOSITIONS AND METHODS FOR INHIBITING KRAS” (TheRas, Inc., priority 2021, published 2024) can be followed below.

Assay [1] deals with T1, Avi-KRAS G12D (1-169) GppNHp/RAF1 RBD-3×FLAG (52-151) (Homo sapiens, UniProt P01116, G12D).
T1 construct: Avi-KRAS G12D (1-169) GppNHp
The experiment in a line: HTRF Raf1-KRAS G12D-GppNHp disruption assay. The format is biochemical. The following applies: 1 h incubation. In outline:
(§1)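 HTRF read-out (320 nm excitation, 615 nm emission) after two 1 h room-temperature incubations, first with protein mix, then detection reagents. Ten-point dilution series starting at 100 μM; results given as % activity relative to DMSO at 100%.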
(In TR-FRET formats the signal depends on donor and acceptor labels being close together.)

The target of assay [2] is T2, Avi-KRAS G12D/Q25A (1-169) GppNHp/3×FLAG-PI3KCA (157-299) (Homo sapiens, UniProt P01116, G12D/Q25A).
T2 construct: Avi-KRAS G12D/Q25A (1-169) GppNHp
Description: HTRF PI3KCA-KRAS G12D/Q25A-GppNHp disruption assay. The format is biochemical. The following applies: 1 h incubation. In outline:
as §1

In assay [3] the test system is pERK in GP2d cells (KRAS G12D). Description: Cell-based pERK HTRF assay. The following applies: 60 min incubation. On the procedure: Biological Example 3. Cell-Based pERK HTRF Assay
pERK assay (Perkin Elmer) was used to determine the effectiveness of compounds in disrupting KRAS G12D protein/effector signaling in cells.
On Day 1, cells (GP2d) were seeded into 96-well plates at 3×10^4 cells/well in 80 μl complete growth media (DMEM, 10% FBS).
On Day 2, cells were treated with compounds at 0.25% DMSO. The source plate was created with compounds diluted in media at 5-fold the final assay concentration. The compounds were run in a 9-point concentration curve starting at 1 μM, with a half-log dilution between concentrations. 20 μL was transferred onto the cell plates (final volume in wells was 100 μL). Plates were harvested after 60 min incubation by aspirating media and adding kit-supplied 1× supplemented lysis buffer to all wells (50 μl per well). Plates were then placed on a plate shaker and incubated at 850 rpm for an additional 30 min.
Antibody mixture solution is prepared by diluting aliquoted d2 and Eu Cryptate antibodies 1:20 in kit supplied detection buffer, mix the diluted antibodies solutions (1:1 v:v). Four μL of this solution is then added to a 384-well detection plate (Perkin Elmer; 6008230).
Samples were homogenized by pipetting up and down and then transferred (16 μL of cell lysates) from the 96-well cell culture plate to two wells of the HTRF 384-well detection plate containing the antibody solution. Plates were centrifuged (524 g for 1 min) and allowed to incubate between 4 and 24 h at room temperature. Maximum signal is reached after 4 h incubation time and remains stable over a period of 24 hours. Therefore, readings can be made between 4 and 24 h of incubation. Plates were centrifuged again (524 g for 1 min), then analyzed on the EnVision plate reader using the following settings: Excitation 320 nm, Bandwidth 75 nm; Emission 615 nm, Bandwidth 85 nm; Gain 100%; Flashes 100; Lag 60 μs.

Each structure is given as a SMILES string. Like-named read-outs stand apart in the source and are kept apart here. Bounds are passed on as bounds.

T2 sequence (P01116 1-169 isoform P01116-2 G12D/Q25A limits assumed): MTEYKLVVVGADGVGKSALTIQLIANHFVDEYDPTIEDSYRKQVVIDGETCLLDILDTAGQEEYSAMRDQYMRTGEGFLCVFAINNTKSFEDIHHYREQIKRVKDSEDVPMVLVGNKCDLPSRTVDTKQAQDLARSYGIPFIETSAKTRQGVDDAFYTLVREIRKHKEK
T1 sequence (P01116 1-169 isoform P01116-2 G12D limits assumed): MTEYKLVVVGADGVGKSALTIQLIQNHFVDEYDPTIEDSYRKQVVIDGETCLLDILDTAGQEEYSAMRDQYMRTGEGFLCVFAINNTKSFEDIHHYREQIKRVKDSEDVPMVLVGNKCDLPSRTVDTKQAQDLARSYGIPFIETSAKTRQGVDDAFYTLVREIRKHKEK

Consider `CN(c1nc(OCC23CCCN2CCC3)nc2c(F)c(-c3ccc(F)c4sc(N)nc34)c(C(F)(F)F)cc12)[C@@H]1CCN(C(=O)CN)C1` (atropisomer, axis not shown) [Compound 276], for which the IC50 in assay [1] is 100 to 1000 nM; in assay [2], 1000 to 10000 nM; in assay [3] (GP2d, 1 h) it was > 1000 nM.

As for `CN(c1nc(OCC23CCCN2CCC3)nc2c(F)c(-c3ccc(F)c4sc(N)nc34)c(C(F)(F)F)cc12)[C@@H]1CCNC1` (single isomer, unassigned) [Compound 236], the IC50 is 100 to 1000 nM in assay [1]; 100 to 1000 nM in assay [2]; > 1000 nM in assay [3] (GP2d, 1 h).

Regarding `N#Cc1c(N)sc2c(F)ccc(-c3c(C(F)(F)F)cc4c(N5CC6CCC(C5)N6)nc(OC[C@@]56CCCN5C[C@H](F)C6)nc4c3F)c12` (single isomer, unassigned) [Compound 366], the IC50 was ≤ 100 nM in assay [1]; ≤ 100 nM in assay [2]; ≤ 100 nM in assay [3] (GP2d, 1 h).

As for `N#Cc1c(N)sc2c(F)ccc(-c3c(C(F)(F)F)cc4c(N5CC6CCC(C5)N6)nc(OC[C@@]56CCCN5C[C@H](F)C6)nc4c3F)c12` (single isomer, unassigned) [Compound 367], the IC50 is 1000 to 10000 nM in assay [1], 1000 to 10000 nM in assay [2] and 100 to 1000 nM in assay [3] (read-out: pERK-Gp2D-1hr).

For `CN(c1nc(OC[C@@]23CCCN2C[C@H](F)C3)nc2c(F)c(-c3ccc(F)c4sc(N)nc34)c(C(F)(F)F)cc12)C1CCNC1` (stereo in doubt) [Compound 322, 7-fluoro-4-(8-fluoro-2-(((2R,7aS)-2-fluorotetrahydro-1H-pyrrolizin-7a(5H)-yl)methoxy)-4-(methyl((R)-pyrrolidin-3-yl)amino)-6-(trifluoromethyl)quinazolin-7-yl)benzo[d]thiazol-2-amine], the IC50 was in the range of 100 to 1000 nM in assay [1]; 1000 to 10000 nM in assay [2]; 100 to 1000 nM in assay [3] (GP2d, 1 h).

On to `N#CCc1cc2c(NC3CNC3)nc(OCC34CCCN3CCC4)nc2c(F)c1-c1ccc(F)c2sc(N)nc12` [Compound 126], for which the IC50 is 1000 to 10000 nM in assay [1]; 1000 to 10000 nM in assay [2]; > 1000 nM in assay [3] (GP2d, 1 h).

`NCC(=O)N1CCN(c2nc(OCC34CCCN3CCC4)nc3c(F)c(-c4ccc(F)c5sc(N)nc45)c(C(F)(F)F)cc23)CC1` [Compound 127]: the IC50 in assay [1] was 100 to 1000 nM; in assay [2], 1000 to 10000 nM; in assay [3] (GP2d, 1 h) it was > 1000 nM.

As to `CN1CCC[C@H]1COc1nc(NC2CNC2)c2cc(C(F)(F)F)c(-c3ccc(F)c4sc(N)nc34)c(F)c2n1` [Compound 129], the IC50 is 100 to 1000 nM in assay [1]; 1000 to 10000 nM in assay [2]; > 1000 nM in assay [3] (GP2d, 1 h).

With `CN1CCC[C@H]1COc1nc(NC2CNC2)c2cc(-c3ccoc3)c(-c3ccc(F)c4sc(N)nc34)c(F)c2n1` [Compound 133], the IC50 in assay [1] was 100 to 1000 nM; in assay [2], 1000 to 10000 nM; in assay [3] (GP2d, 1 h) it was > 1000 nM.

Consider `CN1C[C@H](F)C[C@H]1COc1nc(N2C[C@H]3NCC[C@H]32)c2cc(C(F)(F)F)c(-c3ccc(F)c4sc(N)nc34)c(F)c2n1` [Compound 174], for which the IC50 is 1000 to 10000 nM in assay [1] and > 1000 nM in assay [3] (GP2d, 1 h).

As to `Nc1nc2c(-c3c(Cl)cc4c(N5CC6CC(C5)N6)nc(OCC56CCCN5CCC6)nc4c3F)ccc(F)c2s1` [Compound 184, 4-(4-(3,6-diazabicyclo[3.1.1]heptan-3-yl)-6-chloro-8-fluoro-2-((tetrahydro-1H-pyrrolizin-7a(5H)-yl)methoxy)quinazolin-7-yl)-7-fluorobenzo[d]thiazol-2-amine], the IC50 was 100 to 1000 nM in assay [1]; 1000 to 10000 nM in assay [2]; > 1000 nM in assay [3] (GP2d, 1 h).

For the compound `Nc1nc2c(-c3c(C(F)(F)F)cc4c(N5CC6CC(C5)N6)nc(OCC56CCCN5CCC6)nc4c3F)ccc(F)c2s1` [Compound 185], the IC50 in assay [1] lay in the range of 100 to 1000 nM; in assay [2] it was 100 to 1000 nM; in assay [3] (GP2d, 1 h), 100 to 1000 nM.

For the compound `NCC(=O)N1CC(Nc2nc(OCC34CCCN3CCC4)nc3c(F)c(-c4ccc(F)c5sc(N)nc45)c(C(F)(F)F)cc23)C1` [Compound 187], the IC50 in assay [1] is 100 to 1000 nM; in assay [2], 1000 to 10000 nM; in assay [3] (GP2d, 1 h), > 1000 nM.

As for `NC(=O)N1CC(Nc2nc(OCC34CCCN3CCC4)nc3c(F)c(-c4ccc(F)c5sc(N)nc45)c(C(F)(F)F)cc23)C1` [Compound 188], the IC50 in assay [1] was 100 to 1000 nM; in assay [2] it was 1000 to 10000 nM; in assay [3] (GP2d, 1 h), > 1000 nM.

On to `Nc1nc2c(-c3c(C(F)(F)F)cc4c(NC5CNC5)nc(OCC56CCCN5CCC6)nc4c3F)ccc(F)c2o1` [Compound 199], for which the IC50 in assay [1] is 100 to 1000 nM; in assay [2], 1000 to 10000 nM; in assay [3] (GP2d, 1 h), > 1000 nM.

Consider `C[C@@H]1CN(c2nc(OC[C@@]34CCCN3C[C@H](F)C4)nc3c(F)c(-c4ccc(F)c5sc(N)nc45)c(C(F)(F)F)cc23)[C@@H](C)CN1` [Compound 207], for which the IC50 in assay [1] was 100 to 1000 nM; in assay [2] it was 1000 to 10000 nM; in assay [3] (GP2d, 1 h), ≤ 100 nM.

For the compound `Nc1nc2c(-c3c(C(F)(F)F)cc4c(N5CC6CCC(C5)N6)nc(OC[C@@]56CCCN5C[C@H](F)C6)nc4c3F)ccc(F)c2o1` [Compound 220, 4-(4-(3,8-diazabicyclo[3.2.1]octan-3-yl)-8-fluoro-2-(((2R,7aS)-2-fluorotetrahydro-1H-pyrrolizin-7a(5H)-yl)methoxy)-6-(trifluoromethyl)quinazolin-7-yl)-7-fluorobenzo[d]oxazol-2-amine], the IC50 is 100 to 1000 nM in assay [1]; 100 to 1000 nM in assay [2]; ≤ 100 nM in assay [3] (GP2d, 1 h).

Take `Nc1nc2c(-c3c(C(F)(F)F)cc4c(N5CC6CCC5CN6)nc(OC[C@@]56CCCN5C[C@H](F)C6)nc4c3F)ccc(F)c2s1` (some centres unmarked) [Compound 223]: the IC50 was 100 to 1000 nM in assay [1]; 100 to 1000 nM in assay [2]; ≤ 100 nM in assay [3] (GP2d, 1 h).

On to `CC(F)(F)c1cc2c(N3CCNCC3)nc(OCC34CCCN3CCC4)nc2c(F)c1-c1ccc(F)c2sc(N)nc12` [Compound 295, 4-(6-(1,1-difluoroethyl)-8-fluoro-4-(piperazin-1-yl)-2-((tetrahydro-1H-pyrrolizin-7a(5H)-yl)methoxy)quinazolin-7-yl)-7-fluorobenzo[d]thiazol-2-amine], for which the IC50 in assay [1] and in assay [2] was 1000 to 10000 nM each time.

As for `C[C@@H]1CN(c2nc(OC[C@@]34CCCN3C[C@H](F)C4)nc3c(F)c(-c4ccc(F)c5sc(N)nc45)c(C(F)F)cc23)[C@@H](C)CN1` [Compound 302], the IC50 in assay [1] and in assay [2] was 1000 to 10000 nM in each case.

For the compound `Nc1nc2c(-c3c(C(F)(F)F)cc4c(N5CCC6(CNC6)C5)nc(OCC56CCCN5CCC6)nc4c3F)ccc(F)c2s1` [Compound 307], the results for the IC50 in assay [1] and in assay [2] were 100 to 1000 nM and 1000 to 10000 nM, respectively.

Take `Nc1nc2c(-c3c(C(F)(F)F)cc4c(N5CCC6(CCNC6)CC5)nc(OCC56CCCN5CCC6)nc4c3F)ccc(F)c2s1` [Compound 308]: the IC50 in assay [1] lay within 100 to 1000 nM; in assay [2], 1000 to 10000 nM.

Turning to `CN(c1nc(OC[C@@]23CCCN2C[C@H](F)C3)nc2cc(-c3ccc(F)c4sc(N)nc34)c(C(F)(F)F)cc12)[C@H]1CNC[C@@H]1F` [Compound 362], the IC50 in assay [1] and in assay [2] was 10000 to 30000 nM in each case.

Regarding `Fc1c(-c2ccc(F)c3scnc23)c(C(F)(F)F)cc2c(N3CC4CCC(C3)N4)nc(OCC34CCCN3CCC4)nc12` [Compound 375], the IC50 in assay [1] and in assay [2] was 10000 to 30000 nM each time.
